# Counter-ions that a name gives are not always drawn.
# Tests used:
# [1] = Weight increase and appearance after exposure to relative humidity (hygroscopicity test); assay type: physicochemical; details: for 24 hours; for Weight increase %: exposure to a relative humidity of 60 ±5% at 25%; for Appearance: exposure to a relative humidity of 60 ±5%
# [2] = Hygroscopicity of the isolated solid as observed on preparation; assay type: physicochemical; details: isolated solid after preparation
# Procedure: The mixture was then filtered under vacuum and the solid thus obtained was dried in a thermostatic oven at 30° C. overnight.
# The mixture was then filtered under vacuum and the solid thus obtained dried in a thermostatic oven at 30° C. overnight.
# 8 g (0.05 moles) of L-carnitine inner salt, 5.8 g (0.05 moles) of fumaric acid and 6.6 g of L-ornithine were dissolved in 7.5 mL of water at 60° C. and the resulting thick, clear mass was slowly poured into a solution of acetone (800 mL) under vigorous mechanical stirring.
Compound,Weight increase % [1],Appearance [1],Hygroscopicity of the solid obtained [2]
CN(CC(=O)O)C(=N)N [Anhydrous creatine],3%,flowable,
CC(C)CC(=O)O[C@H](CC(=O)[O-])C[N+](C)(C)C [Isovaleryl L-carnitine inner salt],20%,deliquescent,
C[N+](C)(C)C[C@H](O)CC(=O)[O-].O=C(O)/C=C/C(=O)O [L-carnitine fumarate],,,highly hygroscopic
C[N+](C)(C)C[C@H](O)CC(=O)[O-] [L-carnitine inner salt],19%,deliquescent,
Isovaleryl L-Carnitine and Creatine Fumarate [Ex. 2 (BS/232)],0.19%,no variation,non-hygroscopic
L-Carnitine and Creatine Fumarate [Ex. 1 (BS/231)],0.18%,no variation,non-hygroscopic
L-carnitine and lysine fumarate,,,non-hygroscopic
isovaleryl L-carnitine and lysine fumarate,,,non-hygroscopic
